Measured values as given in US5965607A, “Substituted Benzo[1,4]dioxines as antiobesity agents” (American Home Products Corporation, priority 1997, dated 1999).

Tests used:
plasma free fatty acids = experiment: Effects on free fatty acid levels in rats; type: in vivo, rat; conditions: for Rat Free Fatty Acid, elevation of plasma free fatty acids as % of Standard 2 response: 0.1 mg/kg via gavage, blood collected 50 min later, relative to Standard 2 at 0.1 mg/kg
Description: Rats respond to a single oral dose of β3 agonist by increasing plasma free fatty acids (FFA) in response to β3 receptor stimulation on the plasma membrane of the fat cell. 5-{2-[2-(3-Chloro-phenyl)-2-hydroxy-ethylamino]-propyl}-benzo[1,3]dioxole- 2,2-dicarboxylic acid diisopropyl ester (Standard 2) was used as a standard compound. All test compounds were dosed at 0.1 mg/kg and compared to the response by Standard 2.
1). Drugs were dissolved in DMSO at 10 mg/mL.
2). Twenty μl of the DMSO-drug solution was added to 10 mL methyl cellulose:Tween-80 (0.5%:0.1%) for a final concentration of 20 μg/mL.
3). Methyl cellulose:tween-80 drug suspension was given via gavage (1 mL/200g body weight; or 0.1 mg/kg) to rats and blood was collected 50 min later.
4). Plasma was analyzed for free fatty acids using a kit supplied by Biochemical Diagnostics Inc. (Brentwood, N.Y.).
5). Drug response was calculated from the formula below. [formula] Effects on Hyperglycemia in Mice
b Elevation of plasma free fatty acids in rats, compounds tested at 0.1 mg/kg, results expressed as % of 5-{2-[2-(3-chloro-phenyl)-2-hydroxy-ethylamino]-propyl}-benzo[1,3]dioxole- 2,2-dicarboxylic acid diisopropyl ester response (78% increase) at 0.1 mg/kg.

[1] = target: human β2 adrenergic receptors (Homo sapiens, UniProt P07550); experiment: cAMP elevation in CHO cells transfected with human β2 adrenergic receptor; type: cell-based; conditions: CHO cells expressing human β2 receptor, compound at 10 nM, 10 min, 37° C., relative to isoproterenol at 10 μM; for activation at 0.01 µM: read-out: β2, % of isoproterenol activity (increase in cAMP)
Description: (§1) The activity of the test compounds on human β-adrenergic receptors was determined with Chinese hamster ovary (CHO) cells transfected with human β3, β2, or β1 adrenergic receptors. The preparation of these cells has been described in Emorine, L. J., Marullo, S., Briend-Sutren, M., Patey, G., Tate, K., Delavier-Klutchko, C., Strosberg, A. D. Molecular Characterization of the Human Beta 3-AdrenergicReceptor Science 1989,245(8), 1118-1121 and in Muzzin, P., Revelli, J.-P., Kuhne, F., Gocayne, J. D., McCombie, W. R., Venter, J. C., Giacobino, J.- P., Fraser, C. M. An Adipose Tissue-Specific Beta 3-Adrenergic Receptor. Molecular Cloning and Down-Regulation in Obesity J. Biol. Chem. 1991, 226, 24053-24058. Agonist activity is indicated by increased cAMP levels in the CHO cells. Selectivity of the test compounds for the β3 receptor was assessed by comparison with results in β2 and β1 adrenergic receptor transfected cells.
(§2) 1). Chinese hamster ovary (CHO) cells transfected with human β3, β2, or β1 adrenergic receptors were used in the assay.
(§3) 2). Cells were grown to confluent conditions in 24 well plates.
(§4) 3). Drugs were dissolved in DMSO at a concentration of 10 μM.
(§5) 4). Cells were incubated with drug at 10 nM concentration for 10 min at 37° C. Isoproterenol (Standard 1) was used as the standard compound and assayed at 10 μM which gives a maximal cAMP elevation in all 3 cell types.
(§6) 5). Cell cAMP concentrations were assayed using a scintillation proximity assay from Amersham Corp (Chicago, Ill.).
(§7) 6). Activities for the test compounds are expressed as a percentage of the isoproterenol response.
(§8) a Human β receptors expressed in Chinese hamster ovary cells, compounds tested at 10 nM, results expressed as % of isoproterenol activity (increase in cAMP) at 10 μM.

[2] = target: human β3 adrenergic receptors (Homo sapiens, UniProt P13945); experiment: cAMP elevation in CHO cells transfected with human β3 adrenergic receptor; type: cell-based; conditions: CHO cells expressing human β3 receptor, compound at 10 nM, 10 min, 37° C., relative to isoproterenol at 10 μM; for activation at 0.01 µM: read-out: β3, % of isoproterenol activity (increase in cAMP)
Description: as §1, §2, §3, §4, §5, §6, §7, §8

human β2 adrenergic receptors, sequence (P07550 whole entry): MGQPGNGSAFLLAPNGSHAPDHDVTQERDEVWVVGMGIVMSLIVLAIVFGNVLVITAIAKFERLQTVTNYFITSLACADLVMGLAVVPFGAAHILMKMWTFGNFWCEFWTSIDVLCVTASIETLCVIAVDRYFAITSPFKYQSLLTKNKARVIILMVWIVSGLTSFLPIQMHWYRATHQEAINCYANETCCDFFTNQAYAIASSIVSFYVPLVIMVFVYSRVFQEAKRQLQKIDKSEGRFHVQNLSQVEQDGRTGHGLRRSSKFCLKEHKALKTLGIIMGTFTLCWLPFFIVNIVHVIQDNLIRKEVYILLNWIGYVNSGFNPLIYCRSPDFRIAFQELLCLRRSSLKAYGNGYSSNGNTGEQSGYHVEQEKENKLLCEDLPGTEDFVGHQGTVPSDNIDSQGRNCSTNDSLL
human β3 adrenergic receptors, sequence (P13945 whole entry): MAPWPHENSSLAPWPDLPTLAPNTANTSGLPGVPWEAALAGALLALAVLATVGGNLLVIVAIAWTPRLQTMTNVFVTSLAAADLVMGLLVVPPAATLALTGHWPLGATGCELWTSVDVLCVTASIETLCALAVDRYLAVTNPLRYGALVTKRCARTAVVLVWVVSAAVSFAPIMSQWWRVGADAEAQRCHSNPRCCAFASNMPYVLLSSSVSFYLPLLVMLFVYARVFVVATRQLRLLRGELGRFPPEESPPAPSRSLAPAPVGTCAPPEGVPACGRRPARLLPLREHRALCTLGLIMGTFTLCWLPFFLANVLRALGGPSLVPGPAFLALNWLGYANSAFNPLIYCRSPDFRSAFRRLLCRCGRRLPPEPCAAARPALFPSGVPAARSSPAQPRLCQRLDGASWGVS

| Structure (SMILES) | β2, % of isoproterenol activity (increase in cAMP) [1] [%] | β3, % of isoproterenol activity (increase in cAMP) [2] [%] | activation at 0.01 µM [1] [%] | activation at 0.01 µM [2] [%] | Rat Free Fatty Acid, elevation of plasma free fatty acids as % of Standard 2 response (plasma free fatty acids) [%] | increase of plasma free fatty acids in rats (plasma free fatty acids; 0.1 mg/kg, response of the standard itself) [%] |
| --- | --- | --- | --- | --- | --- | --- |
| CC(Cc1ccc2c(c1)OC(C(=O)OC(C)C)(C(=O)OC(C)C)O2)NCC(O)c1cccc(Cl)c1 (centres unmarked) [5-{2-[2-(3-Chloro-phenyl)-2-hydroxy-ethylamino]-propyl}-benzo[1,3]dioxole-2,2-dicarboxylic acid diisopropyl ester, reference compound] | – | – | – | – | – | 78 |
| C[C@H](Cc1ccc2c(c1)OC(C(=O)OC1CCCCC1)C(C(=O)OC1CCCCC1)O2)NC[C@H](O)c1cccc(Cl)c1 (stereo partly drawn) [Example 9, (2,3-cis)-6-{(2R)-2-[(2R)-2-(3-Chloro-phenyl)-2-hydroxy-ethylamino]-propyl}-2,3-dihydro-benzo[1,4]dioxine-2,3-dicarboxylic acid dicyclohexyl ester] | – | – | 1 | 3 | 3 | – |
| CC(C)OC(=O)C1Oc2cc(C[C@@H](C)NC[C@H](O)c3cccc(Cl)c3)ccc2OC1C(=O)O (stereo partly drawn) [Example 5, (2,3-cis)-6-{(2R)-2-[(2R)-2-(3-Chloro-phenyl)-2-hydroxy-ethylamino]-propyl}-2,3-dihydro-benzo[1,4]dioxine-2,3-dicarboxylic acid 3-isopropyl ester] | – | – | 11 | 50 | 6 | – |
| C[C@H](Cc1ccc2c(c1)OC(C(=O)OC1CCCC1)C(C(=O)OC1CCCC1)O2)NC[C@H](O)c1cccc(Cl)c1 (stereo partly drawn) [Example 10, (2,3-cis)-6-{(2R)-2-[(2R)-2-(3-Chloro-phenyl)-2-hydroxy-ethylamino]-propyl}-2,3-dihydro-benzo[1,4]dioxine-2,3-dicarboxylic acid dicyclopentyl ester] | – | – | 4 | 3 | 20 | – |
| CCOC(=O)C1Oc2ccc(C[C@@H](C)NC[C@H](O)c3cccc(Cl)c3)cc2OC1C(=O)OCC (stereo partly drawn) [Example 8, (2,3-cis)-6-{(2R)-2-[(2R)-2-(3-Chloro-phenyl)-2-hydroxy-ethylamino]-propyl}-2,3-dihydro-benzo[1,4]dioxine-2,3-dicarboxylic acid diethyl ester] | – | – | – | – | 19 | – |

Further lines, with some results ahead:

| β2, % of isoproterenol activity (increase in cAMP) [1] [%] | β3, % of isoproterenol activity (increase in cAMP) [2] [%] | activation at 0.01 µM [1] [%] | activation at 0.01 µM [2] [%] | Structure (SMILES) | Rat Free Fatty Acid, elevation of plasma free fatty acids as % of Standard 2 response (plasma free fatty acids) [%] | increase of plasma free fatty acids in rats (plasma free fatty acids; 0.1 mg/kg, response of the standard itself) [%] |
| --- | --- | --- | --- | --- | --- | --- |
| 33 | 40 | – | – | CCOCCOC(=O)C1Oc2ccc(C[C@@H](C)NC[C@H](O)c3cccc(Cl)c3)cc2OC1C(=O)OCCOCC (relative stereo) [Example 7, (2,3-cis)-6-{(2R)-2-[(2R)-2-(3-Chloro-phenyl)-2-hydroxy-ethylamino]-propyl}-2,3-dihydro-benzo[1,4]dioxine-2,3-dicarboxylic acid bis-(2-ethoxy-ethyl)ester] | 7 | – |
| – | – | 11 | 27 | C[C@H](Cc1ccc2c(c1)OC(C(=O)OCc1ccccc1)C(C(=O)OCc1ccccc1)O2)NC[C@H](O)c1cccc(Cl)c1 (stereo partly drawn) [Example 12, (2,3-cis)-6-{(2R)-2-[(2R)-2-(3-Chloro-phenyl)-2-hydroxy-ethylamino]-propyl}-2,3-dihydro-benzo[1,4]dioxine-2,3-dicarboxylic acid dibenzyl ester] | 11 | – |
| – | – | 16 | 51 | CCCCOC(=O)C1Oc2ccc(C[C@@H](C)NC[C@H](O)c3cccc(Cl)c3)cc2OC1C(=O)OCCCC (some centres unmarked) [Example 6] | 0 | – |
| – | – | 9 | 4 | CC(C)OC(=O)C1Oc2ccc(C[C@@H](C)NC[C@H](O)c3cccc(Cl)c3)cc2OC1C(=O)OC(C)C (some centres unmarked) [Example 4] | 32 | – |
| – | – | 38 | 97 | CCCCCCCCOC(=O)C1Oc2ccc(C[C@@H](C)NC[C@H](O)c3cccc(Cl)c3)cc2OC1C(=O)OCCCCCCCC (stereo partly drawn) [Example 11, (2,3-cis)-6-{(2R)-2-[(2R)-2-(3-Chloro-phenyl)-2-hydroxy-ethylamino]-propyl}-2,3-dihydro-benzo[1,4]dioxine-2,3-dicarboxylic acid dioctyl ester] | 5 | – |
